According to patent US20120231482A1, “METHOD, KIT OR DIAGNOSTIC FOR THE DETECTION OF REAGENTS WHICH INDUCE ALTERED CONTRACTILITY” (THE JOHNS HOPKINS UNIVERSITY, priority 2009, published 2012):

What was measured:
[1] = tested on: skinned trabeculae; assay: Force-[Ca2+] relation in skinned trabeculae; assay type: cell-based, rat; settings: skinned muscles; DTT (5 mM) for 10 min after NCA
Protocol: FIG. 2. […] (A) Steady-state force-[Ca^2+]i relationship in intact trabeculae before and after NCA (20 μmol/L). n=5. See text for details. (B) Force-[Ca^2+] relation in skinned trabeculae before and after NCA (n=6). […] The muscles were treated with DTT (5 mM) for 10 min after 1st force-[Ca^2+] was obtained in the presence of NCA alone, and a second force-[Ca^2+] relation was obtained in the presence of NCA+DTT. n=3. (D) For comparison, steady-state force-[Ca^2+]i relationship in intact trabeculae before and after AS (500 μmol/L). n=5.
To further test this hypothesis, steady-state force-[Ca^2+]i relations were obtained by tetanizing the muscles in the presence of ryanodine.

[2] = tested on: rat cardiac muscle; assay: Force and [Ca2+]i measurements in cardiac trabeculae; assay type: cell-based; settings: control compounds (NCA hydrolysis products, non-HNO-releasing analogue); data not shown
Protocol: Force and [Ca^2+]i Measurements in Cardiac Trabeculae.
Rat hearts were exposed via midsternotomy after the animals were anesthetized with intraperitoneal injection of pentobarbital (100 mg/kg), and were then rapidly excised and aorta cannulated. The hearts were perfused retrogradely (˜15 ml/min) with high K^+ Krebs-Henseleit (H-K) solution equilibrated with 95% O2 and 5% CO2. Trabeculae were quickly dissected from the right ventricles of the hearts and mounted between a force transducer and a motor arm. The muscles were superfused with K-H solution at a rate of ˜10 ml/min and stimulated at 0.5 Hz. Force was measured using a force transducer system (SI, Germany) and expressed in mN/mm^2. Sarcomere length was measured by laser diffraction. Fura-2 potassium salt was microinjected iontophoretically into one cell and allowed to spread throughout the whole muscle (via gap junctions). The epifluorescence of fura-2 was measured by exciting at 380 and 340 nm. The fluorescent light was collected at 510 nm by a photomultiplier tube (R1527, Hamamatsu). [Ca^2+]i was given by (after subtraction of the autofluorescence): [Ca^2+]i=K′d(R-Rmin)/(Rmax-R), where R is the observed ratio of fluorescence (340/380), K′d is the apparent dissociation constant, Rmax is the ratio of 340 nm/380 nm at saturating [Ca^2+], and Rmin is the ratio of 340 nm/380 nm at zero [Ca^2+]. The values of K′d, Rmax, and Rmin were determined by in vivo calibrations. Tetanization of the trabecula was achieved by addition of ryanodine (1.0 μmol/L) and by increasing the stimulus rate to 10 Hz briefly (˜3 sec) to obtain steady-state force-[Ca^2+] relations. Different levels of tetanized force will be obtained by increasing [Ca^2+] in the perfusate (up to 20-25 mmol/L). The data will be fitted with the Hill equation: F=Fmax[Ca^2+]in/(K1/2n+[Ca^2+]in), where Fmax is the maximal force. K1/2 is [Ca^2+]i at half Fmax, and n is the Hill coefficient.
1-nitrosocyclohexylacetate (NCA) is a new and mechanistically unique HNO donor that has been recently synthesized.

| Compound | increases in myofilament Ca2+ sensitivity caused by HNO [1] | effects in cardiac muscles [2] |
| --- | --- | --- |
| O[C@@H](CS)[C@@H](O)CS [DTT] | completely abolished |  |
| CC(C)(C)C(=O)OC1(N=O)CCCCC1 [1-nitrosocyclohexyl pivalate] |  | had no effects |
| O=C1CCCCC1 [cyclohexanone] |  | did not produce any appreciable effects |
